The values that follow come from publication PMC9144282 (Viruses, 2022).

The term CC50 denotes the concentration at which the toxic effect on the cells reaches its halfway point.

One data set concerns MIP-1β. Nature of the data set: xMAP inflammation biomarkers in HEp-2 cells. In kind it is cell-based, human. To be noted: 2 days posttreatment, concentrations below CC50.
Data set [1] has as its system L41. Nature of the data set: MTT cytotoxicity test, L41 cells. To be noted: concentration of the studied substance.
The test system of another data set is IL-6. Nature of the data set: xMAP inflammation biomarkers in HEp-2 cells. It counts as cell-based, human. The note with it: 2 days posttreatment, concentrations below CC50.
Data set [2] concerns HT-29.
Data set [3] deals with SARS-CoV-2 recombinant antigen S2 (Severe acute respiratory syndrome coronavirus 2, UniProt P0DTC2).
Another data set deals with MCP-1 (MCAP). Nature of the data set: xMAP inflammation biomarkers in HEp-2 cells. It counts as cell-based, human. The note with it: 2 days posttreatment, concentrations below CC50.
For data set [4], the target named is SARS-CoV-2 recombinant antigen N (Severe acute respiratory syndrome coronavirus 2, UniProt P0DTC9).
In data set [5] the test system is human cell lines (HEp-2, L41, HT-29). Nature of the data set: MTT cytotoxicity test, three human cell lines taken together. In kind it is cell-based. On the technique in general: Tetrazolium assays rely on reduction of a dye to a coloured formazan, in cell work by metabolically active cells.
A further data set has as its system IL-17A. Nature of the data set: xMAP inflammation biomarkers in HEp-2 cells. The note with it: 2 days posttreatment, concentrations below CC50. In kind it is cell-based, human.
The subject of data set [6] is HT-29. Nature of the data set: MTT cytotoxicity test, HT-29 cells. The note with it: HT-29, MTT; concentration of the studied substance.
In the next data set the test system is G-CSF. Nature of the data set: xMAP inflammation biomarkers in HEp-2 cells. It counts as cell-based, human. The note with it: 2 days posttreatment, concentrations below CC50.
For another data set, the system named is IL-7. Nature of the data set: xMAP inflammation biomarkers in HEp-2 cells. It counts as cell-based, human. The note with it: 2 days posttreatment, concentrations below CC50.
The test system of data set [7] is L41.
In another data set the test system is IL-10. Nature of the data set: xMAP inflammation biomarkers in HEp-2 cells. In kind it is cell-based, human. To be noted: 2 days posttreatment, concentrations below CC50.
Another data set deals with IL-5. Nature of the data set: xMAP inflammation biomarkers in HEp-2 cells. It counts as cell-based, human. To be noted: 2 days posttreatment, concentrations below CC50.
In a further data set the test system is IL-8. Briefly: xMAP inflammation biomarkers in HEp-2 cells. It counts as cell-based, human. To be noted: 2 days posttreatment, concentrations below CC50.
Another data set deals with MS2 RNA. Briefly: RNase activity by RT^2-PCR, isolated MS2 RNA. In kind it is biochemical, bacteriophage MS2. To be noted: 0.1 mg/mL, 37 °C.
A further data set deals with TNFα. Nature of the data set: xMAP inflammation biomarkers in HEp-2 cells. In kind it is cell-based, human. The note with it: 2 days posttreatment, concentrations below CC50.
In a further data set the test system is IL-4. Nature of the data set: xMAP inflammation biomarkers in HEp-2 cells. It counts as cell-based, human. The note with it: 2 days posttreatment, concentrations below CC50.
A further data set concerns SARS-CoV-2 RNA. It counts as biochemical. The note with it: 0.1 mg/mL, 37 °C.
For the next data set, the system named is HEp-2. Nature of the data set: MTT cytotoxicity test, HEp-2 cells. To be noted: HEp-2, MTT; concentration of the studied substance.
Another data set concerns GM-CSF. Briefly: xMAP inflammation biomarkers in HEp-2 cells. In kind it is cell-based, human. The note with it: 2 days posttreatment, concentrations below CC50.
The next data set has as its system IL-2. Briefly: xMAP inflammation biomarkers in HEp-2 cells. It counts as cell-based, human. The note with it: 2 days posttreatment, concentrations below CC50.
In a further data set the test system is IL-13. Nature of the data set: xMAP inflammation biomarkers in HEp-2 cells. To be noted: 2 days posttreatment, concentrations below CC50. It counts as cell-based, human.
A further data set deals with MS2 Phage. Briefly: RNase activity by RT^2-PCR, whole MS2 phage. It counts as biochemical, bacteriophage MS2. To be noted: 0.1 mg/mL.
The test system of a further data set is IL-1β. Nature of the data set: xMAP inflammation biomarkers in HEp-2 cells. In kind it is cell-based, human. To be noted: two days after addition.
In the next data set the test system is IFNγ. Briefly: xMAP inflammation biomarkers in HEp-2 cells. In kind it is cell-based, human. To be noted: 2 days posttreatment, concentrations below CC50.
For the next data set, the system named is IL-12(p70). Briefly: xMAP inflammation biomarkers in HEp-2 cells. It counts as cell-based, human. The note with it: 2 days posttreatment, concentrations below CC50.
Data set [8] can be described thus: Height of nanomaterials by AFM. In kind it is physicochemical.
Data set [9] relates to SARS-CoV-2 RNA from COVID-19 Patient Blood. It counts as biochemical.
Data set [10] is described as follows: Stability on storage / in media. It counts as physicochemical. To be noted: storage in water solution.
Details of data set [11]: method as in earlier work. The note with it: cited from earlier work.
In data set [12] the test system is influenza A viral and cellular RNA. On the set-up: method as in earlier work. The note with it: 2 mM, 1 h at 37 °C; cited from earlier work.

Like-named read-outs stand apart in the source and are kept apart here. Marks after values point to notes of the source that are not given here.

In the case of `O=[N+]([O-])[O-].[Ag+]` [AgNO3], in the data set on MIP-1β, the “MIP-1β, ratio of MFI to control intact cells” value is given as 1.17 ↑. In addition, the “Cytotoxic concentration CC50” value is on record as 100 (63.49 Ag+) μg/mL in the data set on L41 [1], 100 (63.49 Ag+) μg/mL in the data set on HT-29 [6] and 50 (31.75 Ag+) * μg/mL in the data set with HEp-2. Moreover, the “IL-6, ratio of MFI to control intact cells” value in the data set with IL-6 is 0.85. Further, the “CC50, corresponding concentration of Ag+” value with HT-29 [2] and with L41 [7] was 100 (63.49 Ag+) μg/mL in each case. Also, the “Effect on binding of antigen S2 with polyclonal antibodies (ELISA)” value in data set [3] is listed as “inhibit binding”. Besides, the “Lowest concentration for significant reproducible binding suppression” value was determined as 100 µg/mL in [3] (ELISA, antigen S2 with human polyclonal antibodies) and 100 µg/mL in [4]. In addition, the “MCP-1 (MCAP), ratio of MFI to control intact cells” value with MCP-1 (MCAP) is reported as 1.19 ↑. For the same compound, the “Effect on binding of antigen N with polyclonal antibodies (ELISA)” value in data set [4] was “inhibit binding”. Besides, the “Toxicity for three human cell lines” value in data set [5] (silver ions at 10 μg/mL) is recorded as “not toxic”. Besides, the “IL-17A, ratio of MFI to control intact cells” value with IL-17A is 0.97. Besides, in the data set on G-CSF, the “G-CSF, ratio of MFI to control intact cells” value is given as 1.12 ↑. The “IL-7, ratio of MFI to control intact cells” value in the data set with IL-7 is on record as 0.70. Besides, the “IL-10, ratio of MFI to control intact cells” value in the data set with IL-10 was 0.78. Also, the “IL-5, ratio of MFI to control intact cells” value in the data set on IL-5 turned out to be 0.88. For the same compound, the “IL-8, ratio of MFI to control intact cells” value with IL-8 is given as 3.71 ↑. Further, in the data set on MS2 RNA, the “Time for complete cleavage of isolated MS2 RNA” value is 15 min. In addition, the “TNFα, ratio of MFI to control intact cells” value in the data set with TNFα was 1.15 ↑. The “IL-4, ratio of MFI to control intact cells” value with IL-4 was found to be 0.84. Besides, in the data set with SARS-CoV-2 RNA, the “Incubation necessary for exhaustive hydrolysis of SARS-CoV-2 RNA” value came to 1 h. For the same compound, in the data set with SARS-CoV-2 RNA (RT^2-PCR), the “ΔCt = Ct (sample) − Ct (control), SARS-CoV-2 RNA” value is 0.9. In addition, in the data set with GM-CSF, the “GM-CSF, ratio of MFI to control intact cells” value is 0.92. Besides, the “IL-2, ratio of MFI to control intact cells” value in the data set on IL-2 came out at 0.74. Moreover, the “IL-13, ratio of MFI to control intact cells” value in the data set on IL-13 stood at 0.81. Moreover, the “Incubation required for complete damage of RNA inside the MS2 phage” value in the data set with MS2 Phage (37 °C (data not shown)) is reported as “at least 1 h”. Moreover, the IL1β production result in the data set on IL-1β is on record as “up to 0.08 pg/mL”. The “IFNγ, ratio of MFI to control intact cells” value in the data set with IFNγ is 1.03. Further, in the data set with IL-12(p70), the “IL-12(p70), ratio of MFI to control intact cells” value is listed as 0.70.

For Li^+[Ag^+2Cys2^−(OH^−)2(NH3)2] [Ag-2S], the “Cytotoxic concentration CC50” value in the data set on L41 [1] is on record as 21.2 (4.32 Ag+) μg/mL; in the data set with HT-29 [6], 15.9 (3.24 Ag+) μg/mL. Moreover, the “Effect on binding of antigen N with polyclonal antibodies (ELISA)” value in data set [4] is “did not significantly differ from the positive controls”. The CC50 was 5.3 to 21.2 µg/mL in [5] (over the human cell lines (Table 1)) and 10 to 40 µM in [5] (range over the human cell lines, read-out: CC50). In addition, the “Particle height range (AFM)” value in data set [8] (height distribution histograms, includes protein shell for Ag NCs-IgG) is recorded as 1–2 nm. Moreover, the “Most probable height (AFM)” value in data set [8] (height histograms) is on record as ~ 1 nm. Besides, the “ΔCt = Ct (sample) − Ct (control), SARS-CoV-2 RNA from COVID-19 Patient Blood” value in data set [9] is 1.6. Moreover, the “Stability of structure and physico-chemical properties during storage” value in data set [10] is reported as “up to 10 years”. Besides, in data set [11], the “Damage of cellular DNA and viral antigens after incubation” value was “neither cellular DNA nor viral antigens were damaged”. Further, the “Time for complete cleavage of isolated MS2 RNA” value in the data set with MS2 RNA is given as 15 min. Further, the “Cleavage of total RNA” value in data set [12] was “Complete cleavage”. Further, in the data set with SARS-CoV-2 RNA, the “Incubation necessary for exhaustive hydrolysis of SARS-CoV-2 RNA” value was determined as 1 h. In addition, in the data set on MS2 Phage (37 °C, RT^2-PCR), the “ΔCt = Ct (sample) − Ct (control), MS2 Phage” value worked out at 7.5.
